In patent publication US8802597B2, “Herbicidal pyrimidines” (E I du Pont de Nemours and Company, priority 2003, dated 2014):
Like-named read-outs stand apart in the source and are kept apart here.

Tests used:
Assay type in all cases: in vivo
[1] = test system: wild oat (Avena fatua); assay: Test B postemergence; conditions: Avena fatua, post-emergence, scale 0 to 100 (0 no effect, 100 complete control), read-out: Oat, Wild plant response rating
In short: (§1)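 Test chemicals in a non-phytotoxic solvent mixture with surfactant were applied preemergence to planted seeds and postemergence to plants 2 to 18 cm tall (1- to 4-leaf stage). After 13 to 15 days in a greenhouse, injury was visually rated against untreated controls on a 0 to 100 scale.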

[2] = test system: blackgrass (Alopecurus myosuroides); assay: Test B postemergence; conditions: Alopecurus myosuroides, post-emergence, 62 g ai/ha, scale 0 to 100 (0 no effect, 100 complete control), read-out: Blackgrass plant response rating
In short: as §1

[3] = test system: barnyardgrass (Echinochloa crus-galli); assay: Test B flooded paddy test; conditions: Echinochloa crus-galli, Flood, scale 0 to 100, read-out: Plant response rating, Barnyardgrass
In short: (§2)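 Visual injury scoring (0 = no effect, 100 = complete control) versus controls made 13 to 15 days after treatment in the greenhouse. Test species were grown in flooded paddy to the 2-leaf stage: rice, barnyardgrass, umbrella sedge, duck salad.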

[4] = test system: rice (Oryza sativa); assay: Test B flooded paddy test; conditions: Oryza sativa, Flood, scale 0 to 100, read-out: Plant response rating, Rice
In short: as §2

[5] = test system: umbrella sedge (Cyperus difformis); assay: Test B flooded paddy test; conditions: Cyperus difformis, Flood, scale 0 to 100, read-out: Plant response rating, Sedge, Umbrella
In short: as §2

[6] = test system: duck salad (Heteranthera limosa); assay: Test B flooded paddy test; conditions: Heteranthera limosa, Flood, scale 0 to 100, read-out: Plant response rating, Ducksalad
In short: as §2

[7] = test system: barnyardgrass (Echinochloa crus-galli); assay: Test B pre/postemergence; conditions: Echinochloa crus-galli, post-emergence, Postemergence, scale 0 to 100 (0 no effect, 100 complete control), read-out: Barnyardgrass plant response rating
In short: as §1

[8] = test system: wheat (Triticum aestivum); assay: Test B pre/postemergence; conditions: Triticum aestivum, scale 0 to 100 (0 no effect, 100 complete control); for plant injury at 62 g/ha: 62 g ai/ha; for plant injury at 125 g/ha: 125 g ai/ha
In short: as §1

[9] = test system: lambsquarters (Chenopodium album); assay: Test B pre/postemergence; conditions: Chenopodium album, post-emergence, Postemergence, scale 0 to 100 (0 no effect, 100 complete control), read-out: Lambsquarters plant response rating
In short: as §1

[10] = test system: velvetleaf (Abutilon theophrasti); assay: Test B pre/postemergence; conditions: Abutilon theophrasti; for pest or weed control at 62 g/ha: 62 g ai/ha; for pest or weed control at 125 g/ha: 125 g ai/ha
In short: as §1

[11] = test system: giant foxtail (Setaria faberii); assay: Test B pre/postemergence; conditions: Setaria faberi; for pest or weed control at 125 g/ha: 125 g ai/ha; for pest or weed control at 62 g/ha: 62 g ai/ha
In short: as §1

[12] = test system: cocklebur (Xanthium strumarium); assay: Test B pre/postemergence; conditions: Xanthium strumarium; for pest or weed control at 62 g/ha: 62 g ai/ha; for pest or weed control at 125 g/ha: 125 g ai/ha
In short: as §1

[13] = test system: morningglory (Ipomoea coccinea); assay: Test B pre/postemergence; conditions: Ipomoea; for pest or weed control at 62 g/ha: 62 g ai/ha; for pest or weed control at 125 g/ha: 125 g ai/ha
In short: as §1

[14] = test system: corn (Zea mays); assay: Test B pre/postemergence; conditions: Zea mays
In short: as §1

[15] = test system: pigweed (Amaranthus retroflexus); assay: Test B pre/postemergence; conditions: Amaranthus retroflexus, post-emergence, Postemergence, scale 0 to 100 (0 no effect, 100 complete control), read-out: Pigweed plant response rating
In short: as §1

[16] = test system: crabgrass (Digitaria sanguinalis); assay: Test B pre/postemergence; conditions: Digitaria sanguinalis; for pest or weed control at 62 g/ha: 62 g ai/ha; for pest or weed control at 125 g/ha: 125 g ai/ha
In short: as §1

[17] = test system: Surinam grass (Brachiaria decumbens); assay: Test B pre/postemergence; conditions: Urochloa decumbens; for pest or weed control at 125 g/ha: 125 g ai/ha; for pest or weed control at 62 g/ha: 62 g ai/ha
In short: as §1

[18] = post-emergence, Postemergence, read-out: Wheat plant response rating
[19] = pre-emergence, Preemergence, read-out: Plant response rating, Wheat
[20] = post-emergence, Postemergence, scale 0 to 100 (0 no effect, 100 complete control), read-out: Velvetleaf plant response rating
[21] = post-emergence, Postemergence, scale 0 to 100 (0 no effect, 100 complete control), read-out: Foxtail, Giant plant response rating
[22] = post-emergence, Postemergence, scale 0 to 100 (0 no effect, 100 complete control), read-out: Cocklebur plant response rating
[23] = post-emergence, Postemergence, scale 0 to 100 (0 no effect, 100 complete control), read-out: Morningglory plant response rating
[24] = post-emergence, Postemergence, scale 0 to 100 (0 no effect, 100 complete control), read-out: Crabgrass plant response rating
[25] = post-emergence, Postemergence, scale 0 to 100 (0 no effect, 100 complete control), read-out: Surinam Grass plant response rating

For `Nc1nc(-c2ccc(Br)cc2)nc(C(=O)O)c1Cl` [Compound 95, 6-amino-2-(4-bromophenyl)-5-chloro-4-pyrimidinecarboxylic acid], the pest or weed control at 62 g/ha ([1]; 62 g ai/ha) was 30%, the pest or weed control at 125 g/ha ([1]; 125 g ai/ha) was 60% and the pest or weed control at 62 g/ha [2] was 60%. It also gave a pest or weed control at 125 g/ha ([3]; 125 g ai/ha) of 0%, a pest or weed control at 500 g/ha ([3]; 500 g ai/ha) of 30% and a plant injury at 125 g/ha ([4]; 125 g ai/ha) of 0%. The plant injury at 500 g/ha ([4]; 500 g ai/ha) was 40%, the pest or weed control at 125 g/ha ([5]; 125 g ai/ha) was 90% and the pest or weed control at 500 g/ha ([5]; 500 g ai/ha) was 90%. The pest or weed control at 125 g/ha ([6]; 125 g ai/ha) was 90%, the pest or weed control at 500 g/ha ([6]; 500 g ai/ha) was 100% and the pest or weed control at 62 g/ha ([7]; 62 g ai/ha) was 90%. The pest or weed control at 125 g/ha ([7]; 125 g ai/ha) was 90%, the plant injury at 62 g/ha [8, 18] was 40% and the plant injury at 125 g/ha [8, 18] was 50%. The plant injury at 62 g/ha [8, 19] was 70%, the plant injury at 125 g/ha [8, 19] was 80% and the pest or weed control at 62 g/ha ([9]; 62 g ai/ha) was 100%. The pest or weed control at 125 g/ha ([9]; 125 g ai/ha) was 100%, the pest or weed control at 62 g/ha [10, 20] was 100% and the pest or weed control at 125 g/ha [10, 20] was 100%. For the same compound, the pest or weed control at 62 g/ha ([10]; pre-emergence, Preemergence, scale 0 to 100, 0 no effect, 100 complete control, read-out: Plant response rating, Velvetleaf) was 80%, the pest or weed control at 125 g/ha ([10]; pre-emergence, Preemergence, scale 0 to 100 (0 no effect, 100 complete control), read-out: Plant response rating, Velvetleaf) was 100% and the pest or weed control at 125 g/ha [11, 21] was 80%. For the same compound, the pest or weed control at 62 g/ha [11, 21] was 80%, the pest or weed control at 125 g/ha ([11]; pre-emergence, Preemergence, scale 0 to 100 (0 no effect, 100 complete control), read-out: Plant response rating, Foxtail, Giant) was 90% and the pest or weed control at 62 g/ha ([11]; pre-emergence, Preemergence, scale 0 to 100, 0 no effect, 100 complete control, read-out: Plant response rating, Foxtail, Giant) was 50%. It also gave a pest or weed control at 62 g/ha [12, 22] of 90%, a pest or weed control at 125 g/ha [12, 22] of 90% and a pest or weed control at 62 g/ha ([12]; pre-emergence, Preemergence, scale 0 to 100, 0 no effect, 100 complete control, read-out: Plant response rating, Cocklebur) of 90%. The pest or weed control at 125 g/ha ([12]; pre-emergence, Preemergence, scale 0 to 100 (0 no effect, 100 complete control), read-out: Plant response rating, Cocklebur) was 100%, the pest or weed control at 62 g/ha [13, 23] was 90% and the pest or weed control at 125 g/ha [13, 23] was 100%. It also gave a pest or weed control at 62 g/ha ([13]; pre-emergence, Preemergence, scale 0 to 100, 0 no effect, 100 complete control, read-out: Plant response rating, Morningglory) of 30%, a pest or weed control at 125 g/ha ([13]; pre-emergence, Preemergence, scale 0 to 100 (0 no effect, 100 complete control), read-out: Plant response rating, Morningglory) of 60% and a plant injury at 62 g/ha ([14]; post-emergence, Postemergence, 62 g ai/ha, scale 0 to 100 (0 no effect, 100 complete control), read-out: Corn plant response rating) of 80%. It also gave a plant injury at 125 g/ha ([14]; post-emergence, Postemergence, 125 g ai/ha, scale 0 to 100 (0 no effect, 100 complete control), read-out: Corn plant response rating) of 90%, a Corn plant response rating (crop injury, 0 = no effect, 100 = complete kill) at 62 g/ha ([14]; pre-emergence, Preemergence, 62 g ai/ha, scale 0 to 100, 0 no effect, 100 complete control) of 40% and a Corn plant response rating (crop injury, 0 = no effect, 100 = complete kill) at 125 g/ha ([14]; pre-emergence, Preemergence, 125 g ai/ha, scale 0 to 100 (0 no effect, 100 complete control)) of 80%. The pest or weed control at 62 g/ha ([15]; 62 g ai/ha) was 100%, the pest or weed control at 125 g/ha ([15]; 125 g ai/ha) was 100% and the pest or weed control at 62 g/ha [16, 24] was 80%. For the same compound, the pest or weed control at 125 g/ha [16, 24] was 80%, the pest or weed control at 62 g/ha ([16]; pre-emergence, Preemergence, scale 0 to 100, 0 no effect, 100 complete control, read-out: Plant response rating, Crabgrass) was 80% and the pest or weed control at 125 g/ha ([16]; pre-emergence, Preemergence, scale 0 to 100 (0 no effect, 100 complete control), read-out: Plant response rating, Crabgrass) was 100%. The pest or weed control at 125 g/ha [17, 25] was 90%, the pest or weed control at 62 g/ha [17, 25] was 80% and the pest or weed control at 125 g/ha ([17]; pre-emergence, Preemergence, scale 0 to 100 (0 no effect, 100 complete control), read-out: Plant response rating, Surinam Grass) was 100%. The pest or weed control at 62 g/ha ([17]; pre-emergence, Preemergence, scale 0 to 100, 0 no effect, 100 complete control, read-out: Plant response rating, Surinam Grass) was 50%.
